These results are taken from PubChem BioAssay (NCI).

What is called GI50 is the concentration that inhibits growth by half. The TGI is the concentration giving total growth inhibition. Lower therefore signals greater sensitivity of the cells.

Each structure is given as a SMILES string.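 These data come from cells grown in 96-well plates and exposed to compound for 48 hours at five concentrations. GI50 = concentration required for 50% inhibition of growth. At the TGI there is no net growth.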

One test has as its system OVCAR-4 ovarian. In words: DTP human tumour cell line panel, 48 h.
As for `CC(=O)c1cccc(N(/C=C/C(=O)C(F)(F)F)CC(=O)c2ccc(Cl)cc2)c1`, the GI50 was more than 100 µM and the TGI was more than 100 µM.

Turning to `COc1ccc(Cl)cc1Nc1nc(C(F)(F)F)ccc1C(=O)NN`, the GI50 was 3.21 µM and the TGI was more than 100 µM.

As to `CC(C)c1ccc2nc3ccc(C(=O)NCCN(C)C)cn3c(=O)c2c1`, the TGI was 56.5 µM.

As to `C#C[C@]1(O)CC[C@H]2[C@@H]3CC=C4c5nc(Nc6ccccn6)sc5CC[C@]4(C)[C@H]3CC[C@@]21C`, the GI50 was 2.94 µM and the TGI worked out at 9.42 µM.

As for `CSc1ccc(C2=Nn3c(nnc3-c3ccc(F)c(Cl)c3)SC2)cc1`, the GI50 is 23.6 µM and the TGI is 85.1 µM.

`NCCCCNCCCNC(=O)CNC(=O)CC(O)C(N)CCCC(NC(=O)C(CN)NC(=O)C(O)CNC(=O)CC(N)c1ccc(O)cc1)C(=O)O` (stereo unspecified) had a TGI of more than 10 µM.

In the case of `Nc1cc(N)c2nc(-c3ccccc3)c(Oc3ccc(F)cc3)nc2c1`, the GI50 is 8.32 µM and the TGI came out at 35.2 µM.

`Clc1ccccc1NN(Cc1ccccn1)c1ccccc1Cl` showed a total growth inhibition concentration (TGI) of 37.2 µM.

`CC(CO)[C@H]1OC(=O)C=C2[C@@]13O[C@@H]3[C@H]1OC(=O)[C@@]3(C)[C@H]4O[C@H]4C[C@@]2(C)[C@@H]13` (stereo partly specified) had a TGI of more than 24.3 µM.

`COc1cc2cc(Oc3ccc(NC(=O)c4cccc(C(F)(F)F)c4)cc3)c(C)nc2cc1OC`: the GI50 was 3.68 µM and the total growth inhibition concentration (TGI) is more than 100 µM.

Regarding `COc1cc(/C=C2\CN(C)CC3=C2Nc2nc(SC)[nH]c(=O)c2C3c2cc(OC)c(OC)c(OC)c2)cc(OC)c1OC` (stereo unspecified), the GI50 is 4.99 µM and the concentration for total growth inhibition (TGI) was 21.2 µM.

Consider `COc1cc(Nc2ccnc(N3CCN(c4ccnc5cc(Cl)ccc45)CC3)n2)cc(OC)c1`, for which the GI50 is 0.477 µM and the total growth inhibition concentration (TGI) was more than 45.1 µM.

`N#Cc1ccc(-c2nc(C#N)c(N)o2)cc1` came in with a concentration for total growth inhibition (TGI) of more than 10 µM.

In another test the test system is MDA-MB-231 breast. The test can be described thus: DTP human tumour cell line panel, 48 h.
As to `COc1cc(-c2csc(NC(=O)c3cc(C(F)(F)F)cc(C(F)(F)F)c3)n2)cc(OC)c1OC`, the GI50 was 2.72 µM and the TGI was more than 100 µM.

Regarding `CC(C)=CCC12Cc3ccc(O)cc3C(C(C)CN1)C2C` (stereo unspecified), the concentration for total growth inhibition (TGI) was more than 100 µM.

On to `CC[N+]1(C)CCC(O)(c2ccc(C)cc2)C(C(=O)c2ccc(C)cc2)C1` (stereo unspecified), for which the concentration for total growth inhibition (TGI) amounted to 62.3 µM.

In the case of `CC(=O)c1cccc(N(/C=C/C(=O)C(F)(F)F)CC(=O)c2ccc(Cl)cc2)c1`, the GI50 was more than 100 µM and the concentration for total growth inhibition (TGI) is more than 100 µM.

With `COc1ccc(Cl)cc1Nc1nc(C(F)(F)F)ccc1C(=O)NN`, the GI50 is 4.58 µM and the TGI is more than 100 µM.

The molecule `CC(C)c1ccc2nc3ccc(C(=O)NCCN(C)C)cn3c(=O)c2c1` registered a total growth inhibition concentration (TGI) of 34.6 µM.

As to `C#C[C@]1(O)CC[C@H]2[C@@H]3CC=C4c5nc(Nc6ccccn6)sc5CC[C@]4(C)[C@H]3CC[C@@]21C`, the GI50 is 1 µM and the TGI was 3.11 µM.

Turning to `CSc1ccc(C2=Nn3c(nnc3-c3ccc(F)c(Cl)c3)SC2)cc1`, the GI50 was 4.12 µM and the TGI is 21 µM.

`NCCCCNCCCNC(=O)CNC(=O)CC(O)C(N)CCCC(NC(=O)C(CN)NC(=O)C(O)CNC(=O)CC(N)c1ccc(O)cc1)C(=O)O` (stereo unspecified): the TGI is more than 10 µM.

Take `Nc1cc(N)c2nc(-c3ccccc3)c(Oc3ccc(F)cc3)nc2c1`: the GI50 is 3.87 µM and the TGI worked out at 28.8 µM.

`Clc1ccccc1NN(Cc1ccccn1)c1ccccc1Cl` yielded a TGI of 57.4 µM.

As for `Cc1cc2c(C(C)C)c(O)c(O)c(C=Nc3cc(C(F)(F)F)ccc3Cl)c2c(O)c1-c1c(C)cc2c(C(C)C)c(O)c(O)c(C=Nc3cc(C(F)(F)F)ccc3Cl)c2c1O`, the TGI was more than 100 µM.

`CC(CO)[C@H]1OC(=O)C=C2[C@@]13O[C@@H]3[C@H]1OC(=O)[C@@]3(C)[C@H]4O[C@H]4C[C@@]2(C)[C@@H]13` (stereo partly specified) gave a TGI of more than 29.6 µM.

Regarding `COc1cc2cc(Oc3ccc(NC(=O)c4cccc(C(F)(F)F)c4)cc3)c(C)nc2cc1OC`, the GI50 is 3.38 µM and the TGI stood at 46.6 µM.

For the molecule `COc1cc(/C=C2\CN(C)CC3=C2Nc2nc(SC)[nH]c(=O)c2C3c2cc(OC)c(OC)c(OC)c2)cc(OC)c1OC` (stereo unspecified), the GI50 is 3.14 µM and the concentration for total growth inhibition (TGI) was 13.1 µM.

Consider `COc1cc(Nc2ccnc(N3CCN(c4ccnc5cc(Cl)ccc45)CC3)n2)cc(OC)c1`, for which the GI50 was 0.567 µM and the TGI is more than 100 µM.

Consider `COC(=O)C1=C(OC(=O)c2ccc(Cl)cc2)C(C(=O)OC)[C@@]2(O)[C@@H](C(=O)OC)C(c3ccccc3C(F)(F)F)C[C@@H]1[C@@H]2C(=O)OC` (stereo partly specified), for which the GI50 is 2.07 µM and the total growth inhibition concentration (TGI) turned out to be 6.19 µM.

As to `N#Cc1ccc(-c2nc(C#N)c(N)o2)cc1`, the concentration for total growth inhibition (TGI) was more than 10 µM.

A further test deals with HOP-62 NSCLC. The test can be described thus: DTP human tumour cell line panel, 48 h.
In the case of `COc1cc(-c2csc(NC(=O)c3cc(C(F)(F)F)cc(C(F)(F)F)c3)n2)cc(OC)c1OC`, the GI50 was 3.03 µM and the total growth inhibition concentration (TGI) was more than 100 µM.

For `CC(C)=CCC12Cc3ccc(O)cc3C(C(C)CN1)C2C` (stereo unspecified), the total growth inhibition concentration (TGI) was more than 100 µM.

Molecule `CC[N+]1(C)CCC(O)(c2ccc(C)cc2)C(C(=O)c2ccc(C)cc2)C1` (stereo unspecified) yielded a concentration for total growth inhibition (TGI) of more than 100 µM.

As for `CC(=O)c1cccc(N(/C=C/C(=O)C(F)(F)F)CC(=O)c2ccc(Cl)cc2)c1`, the GI50 is more than 100 µM and the TGI is more than 100 µM.

On to `COc1ccc(Cl)cc1Nc1nc(C(F)(F)F)ccc1C(=O)NN`, for which the GI50 is 5.78 µM and the TGI is more than 75.4 µM.

`CC(C)c1ccc2nc3ccc(C(=O)NCCN(C)C)cn3c(=O)c2c1` gave a TGI of 31.4 µM. This lies in the double-digit micromolar range.

As to `C#C[C@]1(O)CC[C@H]2[C@@H]3CC=C4c5nc(Nc6ccccn6)sc5CC[C@]4(C)[C@H]3CC[C@@]21C`, the GI50 is 1.11 µM and the TGI stood at 2.95 µM.

Consider `CSc1ccc(C2=Nn3c(nnc3-c3ccc(F)c(Cl)c3)SC2)cc1`, for which the GI50 is 5.84 µM and the total growth inhibition concentration (TGI) stood at 19.5 µM.

With `NCCCCNCCCNC(=O)CNC(=O)CC(O)C(N)CCCC(NC(=O)C(CN)NC(=O)C(O)CNC(=O)CC(N)c1ccc(O)cc1)C(=O)O` (stereo unspecified), the TGI was more than 10 µM.

As for `Nc1cc(N)c2nc(-c3ccccc3)c(Oc3ccc(F)cc3)nc2c1`, the GI50 was 21.5 µM and the total growth inhibition concentration (TGI) stood at 49.5 µM.

For the molecule `Clc1ccccc1NN(Cc1ccccn1)c1ccccc1Cl`, the TGI turned out to be 34.3 µM.
